Measurements as given in US9963445B2, “Chemical compounds” (SYNGENTA PARTICIPATIONS AG, priority 2013, dated 2018).

Experiments:
Assay type in all cases: in vivo
Abutilon theophrasti [1] = test: Pre-emergence herbicidal activity, glasshouse pot test; settings: pre-emergence spray, rate 1000 g/ha, evaluated after 13 days, scale 0-5
Outline: (§1)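 Glasshouse conditions were 24/16 °C day/night with 14 h light and 65% humidity throughout. Soil was sprayed before emergence, one day after sowing, using an acetone/water (50:50) formulation with 0.5% Tween 20; injury was scored 0–5 after 13 days.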

Alopecurus myosuroides [2] = test: as above; settings: pre-emergence spray, rate 1000 g/ha, evaluated after 13 days, scale 0-5
Outline: as §1

Amaranthus retroflexus [3] = test: as above; settings: pre-emergence spray, rate 1000 g/ha, evaluated after 13 days, scale 0-5
Outline: as §1

Echinochloa crus-galli [4] = test: as above; settings: pre-emergence spray, rate 1000 g/ha, evaluated after 13 days, scale 0-5
Outline: as §1

Setaria faberi [5] = test: as above; settings: pre-emergence spray, rate 1000 g/ha, evaluated after 13 days, scale 0-5
Outline: as §1

zea mays [6] = test: as above; settings: pre-emergence spray, rate 1000 g/ha, evaluated after 13 days, scale 0-5
Outline: as §1

Abutilon theophrasti [7] = test: Post-emergence herbicidal activity, glasshouse pot test; parameters: key: 0 = no damage to plant, 5 = total damage to plant; settings: Application post-emergence, rate 1000 g/ha, evaluated after 13 days
Outline: (§2)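 Seeds sown in standard soil in pots, grown 8 days in glasshouse (24/16 °C day/night, 14 h light, 65% humidity), then sprayed with aqueous solution from active ingredient formulated in acetone/water (50:50) with 0.5% Tween 20. Plants regrown under same conditions, watered twice daily; damage scored after 13 days (0 none–5 total).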

Alopecurus myosuroides [8] = test: as above; parameters: key: 0 = no damage to plant, 5 = total damage to plant; settings: Application post-emergence, rate 1000 g/ha, evaluated after 13 days
Outline: as §2

Amaranthus retroflexus [9] = test: as above; parameters: key: 0 = no damage to plant, 5 = total damage to plant; settings: Application post-emergence, rate 1000 g/ha, evaluated after 13 days
Outline: as §2

Echinochloa crus-galli [10] = test: as above; parameters: key: 0 = no damage to plant, 5 = total damage to plant; settings: Application post-emergence, rate 1000 g/ha, evaluated after 13 days
Outline: as §2

Setaria faberi [11] = test: as above; parameters: key: 0 = no damage to plant, 5 = total damage to plant; settings: Application post-emergence, rate 1000 g/ha, evaluated after 13 days
Outline: as §2

zea mays [12] = test: as above; parameters: key: 0 = no damage to plant, 5 = total damage to plant; settings: Application post-emergence, rate 1000 g/ha, evaluated after 13 days
Outline: as §2

Row | Compound | ABUTH damage score, application pre-emergence (Abutilon theophrasti [1]) | ALOMY damage score, application pre-emergence (Alopecurus myosuroides [2]) | AMARE damage score, application pre-emergence (Amaranthus retroflexus [3]) | ECHCG damage score, application pre-emergence (Echinochloa crus-galli [4]) | SETFA damage score, application pre-emergence (Setaria faberi [5]) | ZEAMX damage score, application pre-emergence (zea mays [6]) | ABUTH herbicidal damage score (Abutilon theophrasti [7]) | ALOMY herbicidal damage score (Alopecurus myosuroides [8]) | AMARE herbicidal damage score (Amaranthus retroflexus [9]) | ECHCG herbicidal damage score (Echinochloa crus-galli [10]) | SETFA herbicidal damage score (Setaria faberi [11]) | ZEAMX herbicidal damage score (zea mays [12])
1 | CCN(CC)C(=O)c1cnc(N2C(=O)C(OC)=C(C)C2O)cc1C(F)(F)F (stereo not drawn) [AI9] | 5 | 4 | 5 | 5 | 4 | 3 | 5 | 5 | 5 | 5 | 5 | 4
2 | C#CCNC(=O)c1cnc(N2C(=O)C(OC)=C(C)C2O)cc1C(F)(F)F (stereo not drawn) [AI10] | 5 | 4 | 5 | 5 | 5 | 4 | 4 | 5 | 5 | 5 | 5 | 5
3 | COC1=C(C)C(O)N(c2cc(C(F)(F)F)c(C(=O)N(C)C)cn2)C1=O (stereo not drawn) [AI11] | 5 | 4 | 5 | 4 | 4 | 4 | 5 | 5 | 5 | 5 | 5 | 4
4 | COC1=C(C)C(O)N(c2cc(C(F)(F)F)c(C(=O)N(C)OC)cn2)C1=O (stereo not drawn) [AI12] | 5 | 4 | 5 | 4 | 4 | 4 | 5 | 5 | 5 | 5 | 5 | 5
5 | COC1=C(C)C(O)N(c2cc(C(F)(F)F)c(-c3cncnc3)cn2)C1=O (stereo not drawn) [AI13] | 2 | 3 | 4 | 3 | 2 | 3 | 5 | 5 | 5 | 5 | 5 | 4
6 | COC1=C(C)C(O)N(c2cc(C(F)(F)F)c(-c3cnc(OC)nc3)cn2)C1=O (stereo not drawn) [AI14] | 1 | 2 | 5 | 2 | 3 | 1 | 5 | 4 | 5 | 5 | 5 | 3
7 | COC1=C(C)C(O)N(c2cc(C(F)(F)F)c(OC)cn2)C1=O (stereo not drawn) [AI15] | 2 | 4 | 5 | 4 | 5 | 3 | 5 | 5 | 5 | 5 | 5 | 4
8 | COC1=C(C)C(O)N(c2cc(C(F)(F)Cl)ccn2)C1=O (stereo not drawn) [AI16] | 1 | 3 | 5 | 5 | 5 | 2 | 5 | 4 | 5 | 5 | 5 | 3
9 | COC1=C(C)C(O)N(c2cc(C(C)F)ccn2)C1=O (stereo not drawn) [AI17] | 5 | 4 | 5 | 5 | 5 | 4 | 5 | 5 | 5 | 5 | 5 | 3
10 | CCOC(=O)c1cnc(N2C(=O)C(OC)=C(C)C2O)cc1Cl (stereo not drawn) [AI19] | 0 | 1 | 2 | 2 | 1 | 0 | 4 | 1 | 5 | 3 | 5 | 1
11 | CCc1cc(N2C(=O)C(OC)=C(C)C2O)ncc1Br (stereo not drawn) [AI22] | 1 | 3 | 5 | 4 | 2 | 1 | 4 | 4 | 5 | 5 | 5 | 1
12 | COC1=C(C)C(O)N(c2cc(F)ccn2)C1=O (stereo not drawn) [AI23] | 1 | 3 | 5 | 5 | 4 | 1 | 5 | 5 | 5 | 5 | 5 | 3
13 | COC1=C(C)C(O)N(c2ccc(C(=O)NC(C)(C)C)cn2)C1=O (stereo not drawn) [AI24] | 4 | 3 | 5 | 4 | 4 | 1 | 4 | 4 | 5 | 5 | 5 | 4
14 | COC1=C(C)C(O)N(c2ccc(C(=O)NC(C)(C)C#N)cn2)C1=O (stereo not drawn) [AI25] | 4 | 4 | 5 | 3 | 4 | 2 | 5 | 5 | 5 | 5 | 5 | 3
15 | COC1=C(C)C(O)N(c2ccc(NC(=O)C(C)(C)C)cn2)C1=O (stereo not drawn) [AI26] | 5 | 4 | 5 | 5 | 5 | 2 | 5 | 5 | 5 | 5 | 5 | 5
16 | COC1=C(C)C(O)N(c2ccc(N)cn2)C1=O (stereo not drawn) [AI28] | 2 | 1 | 1 | 0 | 1 | 1 | 1 | 1 | 1 | 1 | 1 | 1
